System: Fusarium graminearum PH-1
Type: cell-based
Conditions: for F. graminearum PH-1 MIC Day 1: Fusarium graminearum PH-1, 96-well, resazurin viability; for MIC against F. graminearum: F. graminearum PH-1, Example 7

| Substance | F. graminearum PH-1 MIC Day 1 | MIC against F. graminearum |
| --- | --- | --- |
| PD126.1.1: SEQ ID NO: 730 with N-terminal alanine; wild-type defensin-like protein, expressed in Pichia pastoris (KLCERRSKTWTGWCAKTSHCNKQCKDWERVEHGACHGEFLEKPVSAISNAHCKISF; N-terminal alanine added; listed as Prunus armeniaca) | >12 µM |  |
| PD128.1.1: SEQ ID NO: 734 with N-terminal alanine; wild-type defensin-like protein, expressed in Pichia pastoris (RVCLRRSKTWTGFCGNTRGFDSQCKRWECALHGACHC; N-terminal alanine added; listed as Lepidium sativum) | >12 µM |  |
| PD89.1.2: SEQ ID NO: 569 with N-terminal alanine; Crambe maritima wild-type defensin, expressed in Pichia pastoris (KLCRKPSGTWSGLCANSDSCRKQCINLEKAKDGSCKYKFPAHKCFCYY; N-terminal alanine added; listed as Crambe maritima) | 12 µM |  |
| PD87.1.1: SEQ ID NO: 560 with N-terminal alanine; Raphanus sativus wild-type defensin, expressed in Pichia pastoris (KLCQRPSGTWSGVCGNNNACKNQCIRLEKARHGSCNYVFPAHKCICYFPC; N-terminal alanine added; listed as Raphanus sativus) | 0.75 µM | 0.75 µM |
| PD93.1.1: SEQ ID NO: 588 with N-terminal alanine; Fragaria vesca wild-type defensin, expressed in Pichia pastoris (KICEVPSKTFKGLCVKDRNCVVRCHSEGYGNGKCSHVRRQCMCLKICD; N-terminal alanine added; listed as Fragaria vesca) | >12 µM |  |
| PD99.1.1: SEQ ID NO: 616 with N-terminal alanine; Theobroma cacao wild-type defensin, expressed in Pichia pastoris (KLCQKRSKTWTGPCIKTKNCDHQCRKWEKAQHGACHWQWPGFACFCYVNC; N-terminal alanine added; Theobroma cacao) | 0.75 µM | 0.75 µM |
| PD85.1.1: SEQ ID NO: 551 with N-terminal alanine; Panax ginseng wild-type defensin, expressed in Pichia pastoris (KLCEKASLTWSGKCGNTQNCDKQCQNWESAKHGACHKRPTWKCFCYSDC; N-terminal alanine added; Panax ginseng) | >12 µM |  |
| PD120.1.1: SEQ ID NO: 706 with N-terminal alanine; Setaria italica wild-type defensin, expressed in Pichia pastoris (DRCETHSRTYKGRCNNHNCWSICITEGNTGGFCKGTLLLKCMCTSEC; N-terminal alanine added; listed as Setaria italica) | 12 µM |  |
| PD124.1.1: SEQ ID NO: 723 with N-terminal alanine; Rubus argutus wild-type defensin, expressed in Pichia pastoris (RICEVPSKTFIGLCFKDTNCIVRCRSEGYGYGKCSHFRRRCRCFKPCP; N-terminal alanine added; listed as Rubus argutus) | 2 µM |  |
| PD82.1.1: SEQ ID NO: 538 with N-terminal alanine; Pinus sylvestris wild-type defensin, expressed in Pichia pastoris (RTCLSKSHRFHGYCVRSSSCKEICQTERFLSGECRHTHLGNRRCFCEKPC; N-terminal alanine added; listed as Pinus sylvestris) | 1.5 µM |  |
| PD95.1.1: SEQ ID NO: 598 with N-terminal alanine; Mimulus guttatus wild-type defensin, expressed in Pichia pastoris (RHCESPSHRFKGICVRKSNCAAICQTEGFSSGKCRGFRSRCVCIKHC; N-terminal alanine added; listed as Mimulus guttatus) | 0.75 µM | 0.75 µM |
